By IC50 is commonly meant the concentration needed to halve the response being measured.

The structures appear in SMILES notation.

Test [1] has as its target T1, Human HDAC1 (Homo sapiens, UniProt Q13547).
T1 construct: full length with C-terminal His-tag and C-terminal FLAG-tag; His (C); FLAG (C); host or cells: baculovirus expression system
As to the kind of experiment: HDAC1 biochemical assay, AMC-labeled peptide substrate. The following applies: read-out: HDAC Isoform IC50 (nM) 1. Summed up:
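Two-step fluorogenic read: HDAC1 deacetylates 50 μM acetyl-lysine AMC peptide RHKK(Ac)AMC for 1 h at 30° C (pH 8.0, 1% DMSO, with compound), then developer digests the product for fluorescence at Ex/Em 360/460. Enzyme is full-length human, His/FLAG-tagged, insect-cell expressed, at 0.3 ng/ul.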

Test [2] concerns the target T2, Human HDAC4 (Homo sapiens, UniProt P56524).
T2 construct: amino acids 627-1085 with N-terminal GST tag; GST (N); host or cells: baculovirus expression system
Briefly: HDAC4 biochemical assay, class IIa-specific substrate. Conditions: read-out: HDAC Isoform IC50 (nM) 4. Summed up:
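Two-step fluorogenic read-out: deacetylated BOC-Lys(trifluoroacetyl)-AMC (50 μM) was digested by developer and measured at Ex/Em 360/460. Deacetylation by 0.004 ng/ul HDAC4 (aa 627-1085, N-terminal GST) ran 30 min at room temperature, pH 8.0 Tris buffer, 1 mg/mL BSA, 1% DMSO.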

Test [3] addresses T3, Human HDAC5 (Homo sapiens, UniProt Q9UQL6).
T3 construct: full length with C-terminal His tag, MW=51.1 kDa; His (C); host or cells: baculovirus expression system
As to the kind of experiment: HDAC5 biochemical assay, class IIa-specific substrate. Conditions: read-out: HDAC Isoform IC50 (nM) 5. Summed up: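 Two-step fluorogenic read-out: deacetylated trifluoroacetyl-lysine AMC substrate (50 μM) digested by developer, measured at Ex/Em 360/460. Deacetylation step: 0.05 ng/ul His-tagged full-length baculoviral enzyme with compound, 30 min, room temperature, pH 8.0 Tris with 1 mg/mL BSA and 1% DMSO.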

Test [4] addresses T4, Recombinant human HDAC6 (Homo sapiens, UniProt Q9UBN7).
T4 construct: full length, MW=159 kDa; GST (N); host or cells: Sf9 insect cells (baculovirus)
T4 sequence (Q9UBN7 1-1215): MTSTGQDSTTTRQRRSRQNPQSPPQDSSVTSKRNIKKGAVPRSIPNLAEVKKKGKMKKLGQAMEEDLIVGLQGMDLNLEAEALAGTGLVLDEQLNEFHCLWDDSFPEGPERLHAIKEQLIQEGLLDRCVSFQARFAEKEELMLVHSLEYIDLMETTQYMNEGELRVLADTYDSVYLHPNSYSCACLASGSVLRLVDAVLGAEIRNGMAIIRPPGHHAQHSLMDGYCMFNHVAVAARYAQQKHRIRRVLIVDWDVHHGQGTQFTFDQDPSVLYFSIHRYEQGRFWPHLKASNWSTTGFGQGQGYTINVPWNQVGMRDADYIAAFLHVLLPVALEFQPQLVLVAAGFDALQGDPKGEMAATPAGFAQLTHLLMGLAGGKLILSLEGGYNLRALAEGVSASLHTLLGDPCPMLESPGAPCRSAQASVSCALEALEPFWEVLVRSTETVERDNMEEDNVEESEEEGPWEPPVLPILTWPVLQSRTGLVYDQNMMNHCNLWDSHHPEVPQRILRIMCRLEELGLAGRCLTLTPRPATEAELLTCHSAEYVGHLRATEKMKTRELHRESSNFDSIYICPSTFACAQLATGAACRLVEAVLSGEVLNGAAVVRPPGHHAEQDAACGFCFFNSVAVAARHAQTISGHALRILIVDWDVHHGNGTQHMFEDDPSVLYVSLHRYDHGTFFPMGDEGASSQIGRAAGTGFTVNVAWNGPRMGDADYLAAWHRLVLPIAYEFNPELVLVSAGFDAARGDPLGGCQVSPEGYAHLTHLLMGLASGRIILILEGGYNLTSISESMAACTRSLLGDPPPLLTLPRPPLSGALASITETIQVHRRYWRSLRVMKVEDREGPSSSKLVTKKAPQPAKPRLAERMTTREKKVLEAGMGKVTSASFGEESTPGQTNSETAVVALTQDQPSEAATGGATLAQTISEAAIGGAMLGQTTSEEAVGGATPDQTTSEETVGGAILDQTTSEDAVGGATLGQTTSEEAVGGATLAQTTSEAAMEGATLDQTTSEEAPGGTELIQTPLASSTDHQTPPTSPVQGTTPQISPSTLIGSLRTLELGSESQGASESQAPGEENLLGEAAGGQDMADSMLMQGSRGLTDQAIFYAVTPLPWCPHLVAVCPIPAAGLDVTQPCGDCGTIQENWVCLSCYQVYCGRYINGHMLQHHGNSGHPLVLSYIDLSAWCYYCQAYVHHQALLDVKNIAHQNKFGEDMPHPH
Briefly: HDAC6 biochemical assay, AMC-labeled peptide substrate. The following applies: HDAC6; read-out: HDAC Isoform IC50 (nM) 6. In short, it runs like this: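 Two-step fluorogenic read-out: enzyme deacetylates 50 μM RHKK(Ac)AMC for 1 h at 30° C in pH 8.0 Tris buffer with BSA and 1% DMSO, then developer cleavage gives signal at Ex 360/Em 460. Enzyme: 0.3 ng/ul recombinant full-length human HDAC6, GST-tagged, Sf9-expressed.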

In test [5] the target is T5, Human HDAC7 (Homo sapiens, UniProt Q8WUI4).
T5 construct: (a.a. 518-end) with N-terminal GST tag; GST (N); host or cells: baculovirus expression system
T5 sequence (Q8WUI4 518-952 limits assumed): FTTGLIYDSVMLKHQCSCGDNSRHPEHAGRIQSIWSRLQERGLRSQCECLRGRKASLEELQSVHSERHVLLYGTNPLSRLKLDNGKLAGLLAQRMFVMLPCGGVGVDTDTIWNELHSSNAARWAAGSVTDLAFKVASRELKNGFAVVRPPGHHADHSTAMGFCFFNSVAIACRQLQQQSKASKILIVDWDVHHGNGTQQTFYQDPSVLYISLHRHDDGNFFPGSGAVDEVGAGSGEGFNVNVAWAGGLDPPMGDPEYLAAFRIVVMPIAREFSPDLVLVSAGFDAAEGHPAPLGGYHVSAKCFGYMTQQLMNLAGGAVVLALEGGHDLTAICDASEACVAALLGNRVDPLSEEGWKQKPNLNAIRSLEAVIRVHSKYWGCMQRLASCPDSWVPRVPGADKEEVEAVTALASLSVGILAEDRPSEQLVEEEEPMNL
As to the kind of experiment: HDAC7 biochemical assay, class IIa-specific substrate. The following applies: read-out: HDAC Isoform IC50 (nM) 7. Summed up: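 Two-step fluorogenic readout: class IIa-selective trifluoroacetyl-lysine AMC substrate (50 μM) deacetylated by N-terminal GST-HDAC7 fragment (0.001 ng/ul), then digested by developer, Ex/Em 360/460. Reaction: 30 min, room temperature, Tris-HCl pH 8.0, NaCl/KCl/MgCl2, 1 mg/mL BSA, 1% DMSO.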

The target of test [6] is T6, Human HDAC9 (Homo sapiens, UniProt Q9UKV0).
T6 construct: amino acids 604-1066 with C-terminal His tag; His (C); host or cells: baculovirus expression system
T6 sequence (Q9UKV0 604-1066 isoform Q9UKV0-5): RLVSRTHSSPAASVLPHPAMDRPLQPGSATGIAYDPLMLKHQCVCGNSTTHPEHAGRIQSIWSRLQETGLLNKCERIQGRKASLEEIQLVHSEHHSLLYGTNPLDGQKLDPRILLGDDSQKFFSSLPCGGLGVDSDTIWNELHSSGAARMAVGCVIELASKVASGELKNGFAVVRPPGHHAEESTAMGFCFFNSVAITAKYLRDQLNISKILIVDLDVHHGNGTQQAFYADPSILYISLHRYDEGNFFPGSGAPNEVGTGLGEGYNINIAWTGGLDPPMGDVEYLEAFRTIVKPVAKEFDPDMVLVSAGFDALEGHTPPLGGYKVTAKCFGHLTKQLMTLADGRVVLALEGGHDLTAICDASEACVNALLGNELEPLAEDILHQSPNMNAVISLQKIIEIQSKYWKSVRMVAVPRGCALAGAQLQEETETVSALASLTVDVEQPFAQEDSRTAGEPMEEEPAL
Briefly: HDAC9 biochemical assay, class IIa-specific substrate. Conditions: read-out: HDAC Isoform IC50 (nM) 9. Summed up: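 HDAC9 residues 604-1066 (C-terminal His tag, baculovirus-expressed) at 0.06 ng/ul with 50 μM class IIa substrate Boc-Lys(trifluoroacetyl)-AMC in Tris-HCl pH 8.0 buffer with BSA and 1% DMSO. 30 min at room temperature, then developer added; fluorescence read at 360/460 nm Ex/Em.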

T2 sequence (P56524 627-1084 limits assumed): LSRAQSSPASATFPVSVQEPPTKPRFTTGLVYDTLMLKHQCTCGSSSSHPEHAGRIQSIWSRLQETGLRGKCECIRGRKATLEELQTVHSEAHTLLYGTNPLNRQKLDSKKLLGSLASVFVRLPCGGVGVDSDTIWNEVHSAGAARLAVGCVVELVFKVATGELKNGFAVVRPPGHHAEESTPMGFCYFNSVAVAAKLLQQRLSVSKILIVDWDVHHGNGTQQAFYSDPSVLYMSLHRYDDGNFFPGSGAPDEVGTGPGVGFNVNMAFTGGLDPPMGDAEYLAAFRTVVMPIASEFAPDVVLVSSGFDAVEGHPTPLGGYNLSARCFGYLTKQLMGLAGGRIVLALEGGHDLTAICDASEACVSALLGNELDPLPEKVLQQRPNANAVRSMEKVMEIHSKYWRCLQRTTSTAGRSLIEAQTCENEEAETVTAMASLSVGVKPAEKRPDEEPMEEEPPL
T1 sequence (Q13547 whole entry): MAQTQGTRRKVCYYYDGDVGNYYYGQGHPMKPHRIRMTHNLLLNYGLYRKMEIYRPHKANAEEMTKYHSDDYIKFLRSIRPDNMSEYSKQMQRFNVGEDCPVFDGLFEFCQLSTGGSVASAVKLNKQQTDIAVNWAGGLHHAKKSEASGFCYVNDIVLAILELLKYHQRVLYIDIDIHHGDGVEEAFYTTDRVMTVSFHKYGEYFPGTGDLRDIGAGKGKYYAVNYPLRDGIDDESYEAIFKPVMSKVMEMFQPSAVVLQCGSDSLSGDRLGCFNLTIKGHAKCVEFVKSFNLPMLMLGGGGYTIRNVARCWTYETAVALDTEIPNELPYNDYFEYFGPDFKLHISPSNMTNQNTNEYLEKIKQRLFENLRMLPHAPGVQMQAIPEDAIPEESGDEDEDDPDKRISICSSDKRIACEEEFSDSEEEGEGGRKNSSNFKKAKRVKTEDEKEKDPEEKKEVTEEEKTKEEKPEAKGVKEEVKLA
T3 sequence (Q9UQL6 656-1122 limits assumed): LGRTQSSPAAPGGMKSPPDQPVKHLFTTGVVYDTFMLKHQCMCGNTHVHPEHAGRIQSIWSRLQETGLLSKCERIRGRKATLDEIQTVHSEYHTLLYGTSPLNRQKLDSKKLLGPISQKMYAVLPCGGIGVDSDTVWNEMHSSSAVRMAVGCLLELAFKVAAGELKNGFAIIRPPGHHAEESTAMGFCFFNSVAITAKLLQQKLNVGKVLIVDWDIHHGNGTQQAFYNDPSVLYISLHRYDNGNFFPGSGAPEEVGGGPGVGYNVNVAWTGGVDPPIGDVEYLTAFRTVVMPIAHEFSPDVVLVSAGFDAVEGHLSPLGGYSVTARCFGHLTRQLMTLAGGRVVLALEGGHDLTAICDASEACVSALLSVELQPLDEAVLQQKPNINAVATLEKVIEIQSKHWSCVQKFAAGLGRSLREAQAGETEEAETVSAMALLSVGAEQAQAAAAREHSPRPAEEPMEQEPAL

With `FC(F)(F)c1cnnc(N(Cc2ccc(-c3noc(C(F)(F)F)n3)s2)c2ccncc2)c1` [Example EJ, N-(Pyridin-4-yl)-5-(trifluoromethyl)-N-({5-[5-(trifluoromethyl)-1,2,4-oxadiazol-3-yl]thiophen-2-yl}methyl)pyridazin-3-amine], the IC50 is above 10000 nM in test [1]; at most 10000 nM in test [2]; at most 10000 nM in test [3]; at most 10000 nM in test [4]; at most 10000 nM in test [5]; at most 10000 nM in test [6].
Turning to `COc1ncc(N(Cc2ccc(-c3noc(C(F)(F)F)n3)s2)c2cnccn2)cn1` [Example CT, 2-Methoxy-N-(pyrazin-2-yl)-N-({5-[5-(trifluoromethyl)-1,2,4-oxadiazol-3-yl]thiophen-2-yl}methyl)pyrimidin-5-amine], the IC50 in test [1] was above 10000 nM; in test [2], at most 500 nM; in test [3] it was at most 500 nM; in test [4] it was at most 10000 nM; in test [5] it was at most 500 nM; in test [6] it was at most 1000 nM.
Turning to `FC(F)(F)c1nc(-c2ccc(CN(c3cnccn3)c3ncccc3N3CCOCC3)s2)no1` [Example AN, N-[3-(Morpholin-4-yl)pyridin-2-yl]-N-({5-[5-(trifluoromethyl)-1,2,4-oxadiazol-3-yl]thiophen-2-yl}methyl)pyrazin-2-amine], the IC50 in test [1] was above 10000 nM; in test [2], at most 10000 nM; in test [3], at most 10000 nM; in test [4], at most 1000 nM; in test [5] it was at most 10000 nM; in test [6], at most 10000 nM.
Regarding `COc1ncncc1N(Cc1ccc(-c2noc(C(F)(F)F)n2)s1)c1cnccn1` [Example CY, 4-Methoxy-N-(pyrazin-2-yl)-N-({5-[5-(trifluoromethyl)-1,2,4-oxadiazol-3-yl]thiophen-2-yl}methyl)pyrimidin-5-amine], the IC50 in test [1] was above 10000 nM; in test [2], at most 1000 nM; in test [3], at most 500 nM; in test [4] it was at most 10000 nM; in test [5], at most 10000 nM; in test [6], at most 10000 nM.
In the case of `Cc1ncc(N(Cc2ccc(-c3noc(C(F)(F)F)n3)s2)c2cnccn2)nc1C` [Example BT, 5,6-Dimethyl-N-(pyrazin-2-yl)-N-({5-[5-(trifluoromethyl)-1,2,4-oxadiazol-3-yl]thiophen-2-yl}methyl)pyrazin-2-amine], the IC50 in test [1] is above 10000 nM; in test [2] it was at most 10000 nM; in test [3], at most 10000 nM; in test [4], at most 10000 nM; in test [5], at most 10000 nM; in test [6] it was at most 10000 nM.
Take `CS(=O)(=O)c1ncc(N(Cc2ccc(-c3noc(C(F)(F)F)n3)s2)c2cnccn2)cn1` [Example CW, 2-Methanesulfonyl-N-(pyrazin-2-yl)-N-({5-[5-(trifluoromethyl)-1,2,4-oxadiazol-3-yl]thiophen-2-yl}methyl)pyrimidin-5-amine]: the IC50 in test [1] is above 10000 nM; in test [2], at most 500 nM; in test [3] it was at most 500 nM; in test [4], at most 10000 nM; in test [5], at most 500 nM; in test [6], at most 10000 nM.
`FC(F)(F)c1cnnc(N(Cc2ccc(-c3noc(C(F)(F)F)n3)s2)c2ncccc2N2CCOCC2)c1` [Example EH, N-[3-(Morpholin-4-yl)pyridin-2-yl]-5-(trifluoromethyl)-N-({5-[5-(trifluoromethyl)-1,2,4-oxadiazol-3-yl]thiophen-2-yl}methyl)pyridazin-3-amine]: the IC50 was above 10000 nM in test [1]; at most 10000 nM in test [2]; at most 10000 nM in test [3]; at most 10000 nM in test [4]; at most 10000 nM in test [5]; above 10000 nM in test [6].
As to `FC(F)(F)c1nc(-c2ccc(CN(c3cnccn3)c3ccnc4ccnn34)s2)no1` [Example CF, N-{Pyrazolo[1,5-a]pyrimidin-7-yl}-N-({5-[5-(trifluoromethyl)-1,2,4-oxadiazol-3-yl]thiophen-2-yl}methyl)pyrazin-2-amine], the IC50 in test [1] was above 10000 nM; in test [2], at most 1000 nM; in test [3], at most 10000 nM; in test [4] it was at most 10000 nM; in test [5], at most 10000 nM; in test [6], at most 10000 nM.
For the compound `FC(F)(F)c1cncc(N(Cc2ccc(-c3noc(C(F)(F)F)n3)s2)c2cnccn2)c1` [Example AQ, N-({5-[5-(Trifluoromethyl)-1,2,4-oxadiazol-3-yl]thiophen-2-yl}methyl)-N-[5-(trifluoromethyl)pyridin-3-yl]pyrazin-2-amine], the IC50 is above 10000 nM in test [1]; at most 10000 nM in test [2]; at most 1000 nM in test [3]; at most 10000 nM in test [4]; at most 10000 nM in test [5]; at most 10000 nM in test [6].
`FC(F)(F)c1nc(-c2ccc(CN(c3cnccn3)c3cnsn3)s2)no1` [Example S, N-(1,2,5-Thiadiazol-3-yl)-N-({5-[5-(trifluoromethyl)-1,2,4-oxadiazol-3-yl]thiophen-2-yl}methyl)pyrazin-2-amine]: the IC50 in test [1] is above 10000 nM; in test [2], at most 1000 nM; in test [3], at most 10000 nM; in test [4], at most 10000 nM; in test [5], at most 10000 nM; in test [6] it was at most 10000 nM.

For the origin of these results see patent publication US20210038607A1, “OXADIAZOLYLTHIOPHENE DERIVATIVES USEFUL AS HISTONE DEACETYLASE INHIBITORS” (Karus Therapeutics Limited, priority 2018, published 2021).
